This series in a line: Absorption maximum of aminobutadienes in methanol (or ethanol). The format is physicochemical. The note with it: in methanol (or ethanol when not soluble in methanol). From the text:
The aminobutadiene according to the present invention has the general formula (I) disclosed above. A preferred class of aminobutadienes is that in which R3 represents —COOH, —COOR5, —COR5 or SO2R5 and R4 represents a carboxyl group, —COOR6, —COR6 or —SO2R6, wherein R1, R2, R5 and R6 have the meanings indicated above. Examples of aminobutadienes according to the general formula (I) are for example disclosed in U.S. Pat. No. 4,195,999. Table 1 lists a number of aminobutadienes according to the present invention which can be coupled to an amine rich polymer, including their absorption maxima in methanol (or ethanol when not soluble in methanol).

Molecules are shown by their SMILES.

As to `CCCCC(CC)COC(=O)/C(=C\C=C\N1CCCCC1)C(C)=O` (stereo not shown) [2.3], the Absorption maximum stood at 395 nm.

The record behind these values is US20090130033A1, “Dendrimer-Aminobuadiene-Based Uv Screens” (priority 2004, published 2009).
